Measured values from ChEMBL document CHEMBL5120914, “An O-Benzyl Phosphonamidate Prodrug of Tenofovir for the Treatment of Hepatitis B Virus Infection” (J Med Chem, 2022).

How the values were obtained:
[1] = Cytotoxicity against human HepG2 cells assessed as reduction in cell growth incubated for 3 days by MTT assay; format: toxicity, cell-based; conditions: time 3 day
Hepatitis B virus [2] = experiment: Antiviral activity against Hepatitis B virus infected in human HepG2.2.15 cells assessed as inhibition of viral DNA replication at 1 uM measured after 6 days by FQ-PCR analysis relative to control; format: functional, HepG2 2.2.15; set-up: scale not given: the % may be the effect or the level left; conditions: time 6 day
Hepatitis B virus [3] = experiment: Antiviral activity against Hepatitis B virus infected in human HepG2.2.15 cells assessed as inhibition of viral DNA replication measured for 9 days by FQ-PCR analysis; format: functional, organism-based; conditions: HepG2 2.2.15, 216 h
Hepatitis B virus [4] = experiment: Antiviral activity against Hepatitis B virus infected in ig dosed duck assessed as reduction in viral DNA replication in liver administered once daily for first 10 days followed by increase in dose administered for another 18 days; format: functional, organism-based; conditions: dose 10-40 mg/kg, time 28.0 day, DDE = dose-dependent effect
[5] = Acute toxicity in overnight fasted Kunming mouse assessed as liver tissue damage at 1.5 g/Kg, IG measured on day 15; format: tissue-based; conditions: in vivo, po, 1500 mg/kg
[6] = Toxicity in duck assessed as liver necrosis at 2.5 to 10 mg/kg, IG administered once daily for first 10 days followed by 10 to 40 mg/kg, IG for another 18 days by hematoxyin-eosin staining based light microscopic analysis; format: organism-based; conditions: anas platyrhynchos, in vivo, po, 672 h, dose 2.5-40 mg/kg, time 28 day
[7] = Toxicity in duck assessed as body weight gain at 2.5 to 10 mg/kg, IG administered once daily for first 10 days followed by 10 to 40 mg/kg, IG for another 18 days; format: organism-based; conditions: anas platyrhynchos, in vivo, po, 672 h, dose 2.5-40 mg/kg, time 28 day
[8] = Toxicity in duck assessed as body weight loss at 2.5 to 10 mg/kg, IG administered once daily for first 10 days followed by 10 to 40 mg/kg, IG for another 18 days; format: organism-based; conditions: anas platyrhynchos, in vivo, po, 672 h, dose 2.5-40 mg/kg, time 28 day
Hepatitis B virus [9] = experiment: Antiviral activity against Hepatitis B virus infected in duck assessed as log reduction in viral DNA replication in serum at 2.5 to 10 mg/kg, IG administered once daily for first 10 days followed by 40 mg/kg, IG administered for another 18 days; format: functional; conditions: dose 2.5-40 mg/kg, time 28 day
[10] = Metabolic stability in dog plasma assessed as half life measured upto 24 hrs by HPLC analysis; format: ADME, cell-free, Canis lupus familiaris
Hepatitis B virus [11] = experiment: Antiviral activity against Hepatitis B virus infected in duck assessed as log reduction in viral DNA replication in serum at 2.5 to 10 mg/kg, IG administered once daily for first 10 days followed by 10 mg/kg, IG administered for another 18 days; format: functional; conditions: dose 2.5-10 mg/kg, time 28 day
Hepatitis B virus [12] = experiment: Antiviral activity against Hepatitis B virus infected in duck assessed as log reduction in viral DNA replication in serum at 2.5 to 10 mg/kg, IG administered once daily for first 10 days followed by 20 mg/kg, IG administered for another 18 days; format: functional; conditions: dose 2.5-20 mg/kg, time 28 day
[13] = Acute toxicity in overnight fasted Kunming mouse assessed as lung tissue damage at 1.5 g/Kg, IG measured on day 15; format: tissue-based; conditions: in vivo, po, 1500 mg/kg
[14] = Acute toxicity in overnight fasted Kunming mouse assessed as animal survival at 1.5 g/Kg, IG measured for 15 days; conditions: in vivo, po, 1500 mg/kg, 360 h, time 15 day
[15] = Metabolic stability in human plasma assessed as half life measured upto 24 hrs by HPLC analysis; format: ADME, cell-free
[16] = Toxicity in duck assessed as inflammatory response in liver at 2.5 to 10 mg/kg, IG administered once daily for first 10 days followed by 10 to 40 mg/kg, IG for another 18 days by hematoxyin-eosin staining based light microscopic analysis; format: organism-based; conditions: anas platyrhynchos, in vivo, po, 672 h, dose 2.5-40 mg/kg, time 28 day
[17] = Toxicity in duck assessed as animal survival at 2.5 to 10 mg/kg, IG administered once daily for first 10 days followed by 10 to 40 mg/kg, IG for another 18 days; format: organism-based; conditions: anas platyrhynchos, in vivo, po, 672 h, dose 2.5-40 mg/kg, time 28 day
[18] = Toxicity in duck assessed as liver hemorrhage at 2.5 to 10 mg/kg, IG administered once daily for first 10 days followed by 10 to 40 mg/kg, IG for another 18 days by hematoxyin-eosin staining based light microscopic analysis; format: organism-based; conditions: anas platyrhynchos, in vivo, po, 672 h, dose 2.5-40 mg/kg, time 28 day
[19] = Acute toxicity in overnight fasted Kunming mouse assessed as side effects at 1.5 g/Kg, IG measured for 15 days; conditions: in vivo, po, 1500 mg/kg, 360 h, time 15 day
[20] = Acute toxicity in overnight fasted Kunming mouse assessed as spleen tissue damage at 1.5 g/Kg, IG measured on day 15; format: tissue-based; conditions: in vivo, po, 1500 mg/kg
[21] = Drug metabolism in Sprague-Dawley rat liver assessed as AUC(0 to t) of TFV-DP at 20 mg/kg, IG meaured upto 12 hrs by HPLC-MS/MS analysis; format: ADME, organism-based; conditions: in vivo, po
[22] = Acute toxicity in overnight fasted Kunming mouse assessed as kidney tissue damage at 1.5 g/Kg, IG measured on day 15; format: tissue-based; conditions: in vivo, po, 1500 mg/kg
[23] = Metabolic stability in rat plasma assessed as half life measured upto 25 mins by HPLC analysis; format: ADME, cell-free
[24] = Acute toxicity in overnight fasted Kunming mouse assessed as heart tissue damage at 1.5 g/Kg, IG measured on day 15; conditions: in vivo, po, 1500 mg/kg
[25] = Acute toxicity in overnight fasted Kunming mouse assessed as change in body weight at 1.5 g/Kg, IG measured for 15 days; conditions: in vivo, po, 1500 mg/kg, 360 h, time 15 day
HepG2 = experiment: Cytotoxicity against human HepG2 cells assessed as reduction in cell growth upto 500 uM incubated for 3 days by MTT assay; format: toxicity, cell-based; conditions: hepg2, 72 h, time 3 day

## CCCOC(=O)[C@H](C)NP(=O)(CO[C@H](C)Cn1cnc2c(N)ncnc21)OCc1ccccc1C (stereo partly drawn)
[1]
  CC50 at 72 h: > 500 µM
Hepatitis B virus [2]
  Activity: 14.35%

## Cc1ccccc1COP(=O)(CO[C@H](C)Cn1cnc2c(N)ncnc21)NCC(=O)OC(C)C (stereo partly drawn)
[1]
  CC50 at 72 h: > 500 µM

## Cc1ccccc1COP(=O)(CO[C@H](C)Cn1cnc2c(N)ncnc21)N[C@@H](Cc1ccccc1)C(=O)OC(C)C (stereo partly drawn)
[1]
  CC50 at 72 h: > 500 µM
Hepatitis B virus [3]
  EC50: 0.49 µM
Hepatitis B virus [2]
  Activity: 63.8%

## CC(C)OC(=O)[C@H](C)NP(=O)(CO[C@H](C)Cn1cnc2c(N)ncnc21)OCc1ccccc1 (stereo partly drawn)
[1]
  CC50 at 72 h: > 500 µM
Hepatitis B virus [2]
  Activity: 47.14%

## COC(=O)C[C@H](NP(=O)(CO[C@H](C)Cn1cnc2c(N)ncnc21)OCc1ccccc1C)C(=O)OC (stereo partly drawn)
[1]
  CC50 at 72 h: > 500 µM
Hepatitis B virus [3]
  EC50: 0.827 µM
Hepatitis B virus [2]
  Activity: 69.01%

## CC(C)OC(=O)[C@H](C)NP(=O)(CO[C@H](C)Cn1cnc2c(N)ncnc21)OCc1cccc(Br)c1 (stereo partly drawn)
[1]
  CC50 at 72 h: > 500 µM
Hepatitis B virus [2]
  Activity: 31.94%

## COc1ccccc1COP(=O)(CO[C@H](C)Cn1cnc2c(N)ncnc21)N[C@@H](C)C(=O)OC(C)C (stereo partly drawn)
[1]
  CC50 at 72 h: > 500 µM
Hepatitis B virus [2]
  Activity: 53.33%

## Cc1ccc(COP(=O)(CO[C@H](C)Cn2cnc3c(N)ncnc32)N[C@@H](C)C(=O)OC(C)C)cc1 (stereo partly drawn)
[1]
  CC50 at 72 h: > 500 µM
Hepatitis B virus [3]
  EC50: 0.186 µM
Hepatitis B virus [2]
  Activity: 65.32%

## CC(C)OC(=O)[C@H](C)NP(=O)(CO[C@H](C)Cn1cnc2c(N)ncnc21)OCc1ccccc1Br (stereo partly drawn)
[1]
  CC50 at 72 h: 490 µM
Hepatitis B virus [3]
  EC50: 0.052 µM
Hepatitis B virus [2]
  Activity: 80.75%

## CC(C)OC(=O)[C@H](C)NP(=O)(CO[C@H](C)Cn1cnc2c(N)ncnc21)OCc1cccc(Cl)c1 (stereo partly drawn)
[1]
  CC50 at 72 h: > 500 µM
Hepatitis B virus [3]
  EC50: 0.047 µM
Hepatitis B virus [2]
  Activity: 73.95%

## Cc1ccccc1COP(=O)(CO[C@H](C)Cn1cnc2c(N)ncnc21)N[C@@H](C)C(=O)OC(C)C (stereo in doubt; 1a) [listing 1 of 2 here]
Hepatitis B virus [4]
  Activity: Dde

## Cc1ccccc1COP(=O)(CO[C@H](C)Cn1cnc2c(N)ncnc21)N[C@@H](C)C(=O)OC(C)C (stereo in doubt; 1a) [listing 2 of 2 here]
[5]
  Activity: Non-Toxic
[6]
  Activity: Non-Toxic
[7]
  Activity: Toxic
[8]
  Activity: Non-Toxic
Hepatitis B virus [9]
  Activity: 2.9
[10]
  half-life: > 24 h
[1]
  CC50 at 72 h: > 500 µM
Hepatitis B virus [11]
  Activity: 3
Hepatitis B virus [12]
  Activity: 3.6
[13]
  Activity: Non-Toxic
[14]
  Activity: Non-Toxic
Hepatitis B virus [3]
  EC50: 0.024 µM
[15]
  half-life: > 24 h
[16]
  Activity: Non-Toxic
[17]
  Activity: Non-Toxic
[18]
  Activity: Non-Toxic
[19]
  Activity: Non-Toxic
[20]
  Activity: Non-Toxic
[21]
  AUCt: 781.6 ng·h/g
Hepatitis B virus [2]; 144 h, 1 µM
  Activity: 81.72%
[22]
  Activity: Non-Toxic
[23]
  half-life: < 5 min
[24]
  Activity: Non-Toxic
[25]
  Activity: Non-Toxic

## COC(=O)[C@H](C)NP(=O)(CO[C@H](C)Cn1cnc2c(N)ncnc21)OCc1ccccc1C (stereo partly drawn)
[1]
  CC50 at 72 h: > 500 µM
Hepatitis B virus [3]
  EC50: 0.618 µM
Hepatitis B virus [2]
  Activity: 65.23%

## COc1cccc(COP(=O)(CO[C@H](C)Cn2cnc3c(N)ncnc32)N[C@@H](C)C(=O)OC(C)C)c1 (stereo partly drawn)
[1]
  CC50 at 72 h: > 500 µM
Hepatitis B virus [2]
  Activity: 46.33%

## COc1ccc(COP(=O)(CO[C@H](C)Cn2cnc3c(N)ncnc32)N[C@@H](C)C(=O)OC(C)C)cc1 (stereo partly drawn)
[1]
  CC50 at 72 h: > 500 µM
Hepatitis B virus [2]
  Activity: 41.64%

## CC(C)OC(=O)[C@H](C)NP(=O)(CO[C@H](C)Cn1cnc2c(N)ncnc21)OCc1cccc([N+](=O)[O-])c1 (stereo partly drawn)
[1]
  CC50 at 72 h: > 500 µM
Hepatitis B virus [2]
  Activity: 34.63%

## Cc1ccccc1COP(=O)(CO[C@H](C)Cn1cnc2c(N)ncnc21)N[C@@H](C)C(=O)OC(C)C (stereo in doubt; 1a-1)
HepG2
  Activity: Non-Toxic
Hepatitis B virus [2]; 144 h, 1 µM
  Activity: 62.5%

## CC(C)OC(=O)[C@H](C)NP(=O)(CO[C@H](C)Cn1cnc2c(N)ncnc21)OCc1ccccc1F (stereo partly drawn)
[1]
  CC50 at 72 h: > 500 µM
Hepatitis B virus [3]
  EC50: 0.029 µM
Hepatitis B virus [2]
  Activity: 66.36%
